According to US8952024B2, “Herbicidal pyrimidone derivatives” (E I du Pont de Nemours and Company, priority 2009, dated 2015):

Tests used:
Assay in all cases: Test B pre-/postemergence plant response
Assay type in all cases: in vivo
[1] = system: johnsongrass (Sorghum halepense)
Outline: (§1)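 Visual ratings on a 0–100 scale (100 = complete control) were made versus untreated controls 13–15 days after treatment in a greenhouse. Compounds in surfactant-containing non-phytotoxic solvent were applied preemergence to seeds in loam–sand blend or postemergence to 1- to 4-leaf plants (2–18 cm).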

[2] = system: lambsquarters (Chenopodium album)
Outline: as §1

corn (Zea mays) = system: corn (Zea mays)
Outline: as §1

[3] = system: Italian ryegrass (Lolium multiflorum)
Outline: as §1

[4] = system: velvetleaf (Abutilon theophrasti)
Outline: as §1

kochia (Kochia scoparia) = system: kochia (Kochia scoparia)
Outline: as §1

[5] = system: woolly cupgrass (Eriochloa villosa)
Outline: as §1

[6] = system: goosegrass (Eleusine indica)
Outline: as §1

[7] = system: blackgrass (Alopecurus myosuroides)
Outline: as §1

[8] = system: Surinam grass (Brachiaria decumbens)
Outline: as §1

[9] = system: large crabgrass (Digitaria sanguinalis)
Outline: as §1

[10] = system: green foxtail (Setaria viridis)
Outline: as §1

[11] = system: downy bromegrass (Bromus tectorum)
Outline: as §1

[12] = system: ragweed (common ragweed, Ambrosia elatior)
Outline: as §1

[13] = system: yellow nutsedge (Cyperus esculentus)
Outline: as §1

[14] = system: giant foxtail (Setaria faberii)
Outline: as §1

[15] = system: bermudagrass (Cynodon dactylon)
Outline: as §1

[16] = 250 g ai/ha, Preemergence, 0 to 100 scale
[17] = Postemergence, 31 g ai/ha, scale 0 to 100 (0 no effect, 100 complete control)
[18] = Postemergence, 62 g ai/ha, scale 0 (no effect) to 100 (complete control), 13 to 15 days
[19] = Postemergence, 125 g ai/ha, visual rating after 13 to 15 days, scale 0 (no effect) to 100 (complete control)
[20] = Postemergence, 250 g ai/ha, scale 0 to 100
[21] = Preemergence, 31 g ai/ha, scale 0 to 100 (0 no effect, 100 complete control)
[22] = Preemergence, 62 g ai/ha, scale 0 to 100, 0 no effect, 100 complete control
[23] = Preemergence, 125 g ai/ha, 0 to 100 scale

5-[(2-hydroxy-6-oxo-1-cyclohexen-1-yl)carbonyl]-3-phenyl-2-(3-pyridinyl)-4(3H)-pyrimidone [Compound 113]
45: Plant response rating, Kochia (kochia (Kochia scoparia); [18]) | Plant response rating, Kochia (kochia (Kochia scoparia); [19]) | Plant response rating, Cupgrass, Woolly [5, 16] | Goosegrass plant response rating [6, 23] | Plant response rating, Crabgrass, Large [9, 18] | Plant response rating, Crabgrass, Large [9, 19] | Crabgrass, Large plant response rating [9, 23] | Plant response rating, Bermudagrass [15, 18]
90: Plant response rating, Velvetleaf [4, 19] | Plant response rating, Ragweed [12, 16]
75: Lambsquarters plant response rating [2, 20]
65: Plant response rating, Lambsquarters [2, 18] | Plant response rating, Lambsquarters [2, 19] | Cupgrass, Woolly plant response rating [5, 20] | Plant response rating, Ragweed [12, 18] | Plant response rating, Bermudagrass ([15]; Postemergence, 125 g ai/ha, scale 0 to 100 (0 no effect, 100 complete control), 13 to 15 days)
100: Plant response rating, Lambsquarters [2, 16] | Plant response rating, Lambsquarters [2, 21] | Plant response rating, Lambsquarters [2, 22] | Lambsquarters plant response rating [2, 23] | Plant response rating, Velvetleaf [4, 16] | Velvetleaf plant response rating [4, 23] | Plant response rating, Kochia (kochia (Kochia scoparia); [16]) | Plant response rating, Kochia (kochia (Kochia scoparia); [22]) | Kochia plant response rating (kochia (Kochia scoparia); [23])
40: Plant response rating, Velvetleaf [4, 21] | Foxtail, Green plant response rating [10, 20]
85: Plant response rating, Velvetleaf [4, 22] | Ragweed plant response rating [12, 20] | Bermudagrass plant response rating [15, 23]
60: Plant response rating, Goosegrass [6, 16] | Crabgrass, Large plant response rating [9, 20] | Foxtail, Giant plant response rating [14, 20]
70: Plant response rating, Velvetleaf [4, 17] | Bermudagrass plant response rating [15, 20]
10: Corn plant response rating (corn (Zea mays); [20]) | Plant response rating, Goosegrass [6, 21] | Plant response rating, Surinam Grass [8, 16] | Plant response rating, Surinam Grass [8, 18] | Plant response rating, Nutsedge, Yellow [13, 22]
30: Plant response rating, Crabgrass, Large [9, 17] | Plant response rating, Foxtail, Green [10, 19]
50: Kochia plant response rating (kochia (Kochia scoparia); [20]) | Plant response rating, Cupgrass, Woolly [5, 18] | Plant response rating, Cupgrass, Woolly [5, 19] | Plant response rating, Ragweed [12, 17]
20: Ryegrass, Italian plant response rating [3, 20] | Plant response rating, Goosegrass [6, 17] | Plant response rating, Surinam Grass [8, 19] | Plant response rating, Foxtail, Green [10, 18] | Plant response rating, Foxtail, Giant [14, 17]
15: Plant response rating, Kochia (kochia (Kochia scoparia); [21]) | Ragweed plant response rating [12, 23] | Nutsedge, Yellow plant response rating [13, 23]
80: Plant response rating, Velvetleaf [4, 18] | Plant response rating, Ragweed [12, 19]
0: Plant response rating, Johnsongrass [1, 16] | Plant response rating, Johnsongrass [1, 17] | Plant response rating, Johnsongrass [1, 18] | Plant response rating, Johnsongrass [1, 19] | Johnsongrass plant response rating [1, 20] | Plant response rating, Johnsongrass [1, 21] | Plant response rating, Johnsongrass [1, 22] | Johnsongrass plant response rating [1, 23] | Plant response rating, Lambsquarters [2, 17] | Plant response rating, Corn (corn (Zea mays); [16]) | Plant response rating, Corn (corn (Zea mays); [17]) | Plant response rating, Corn (corn (Zea mays); [18]) | Plant response rating, Corn (corn (Zea mays); [19]) | Plant response rating, Corn (corn (Zea mays); [21]) | Plant response rating, Corn (corn (Zea mays); [22]) | Corn plant response rating (corn (Zea mays); [23]) | Plant response rating, Ryegrass, Italian [3, 16] | Plant response rating, Ryegrass, Italian [3, 17] | Plant response rating, Ryegrass, Italian [3, 18] | Plant response rating, Ryegrass, Italian [3, 19] | Plant response rating, Ryegrass, Italian [3, 21] | Plant response rating, Ryegrass, Italian [3, 22] | Ryegrass, Italian plant response rating [3, 23] | Plant response rating, Kochia (kochia (Kochia scoparia); [17]) | Plant response rating, Cupgrass, Woolly [5, 17] | Plant response rating, Cupgrass, Woolly [5, 21] | Plant response rating, Cupgrass, Woolly [5, 22] | Cupgrass, Woolly plant response rating [5, 23] | Plant response rating, Blackgrass [7, 16] | Plant response rating, Blackgrass [7, 17] | Plant response rating, Blackgrass [7, 18] | Plant response rating, Blackgrass [7, 19] | Plant response rating, Blackgrass [7, 21] | Plant response rating, Blackgrass [7, 22] | Blackgrass plant response rating [7, 23] | Plant response rating, Surinam Grass [8, 17] | Plant response rating, Surinam Grass [8, 21] | Plant response rating, Surinam Grass [8, 22] | Surinam Grass plant response rating [8, 23] | Plant response rating, Crabgrass, Large [9, 21] | Plant response rating, Crabgrass, Large [9, 22] | Plant response rating, Foxtail, Green [10, 16] | Plant response rating, Foxtail, Green [10, 21] | Plant response rating, Foxtail, Green [10, 22] | Foxtail, Green plant response rating [10, 23] | Plant response rating, Bromegrass, Downy [11, 16] | Plant response rating, Bromegrass, Downy [11, 17] | Plant response rating, Bromegrass, Downy [11, 18] | Plant response rating, Bromegrass, Downy [11, 21] | Plant response rating, Bromegrass, Downy [11, 22] | Bromegrass, Downy plant response rating [11, 23] | Plant response rating, Ragweed [12, 21] | Plant response rating, Ragweed [12, 22] | Plant response rating, Nutsedge, Yellow [13, 17] | Plant response rating, Nutsedge, Yellow [13, 18] | Plant response rating, Nutsedge, Yellow [13, 19] | Nutsedge, Yellow plant response rating [13, 20] | Plant response rating, Nutsedge, Yellow [13, 21] | Plant response rating, Foxtail, Giant [14, 21] | Plant response rating, Foxtail, Giant [14, 22] | Foxtail, Giant plant response rating [14, 23] | Plant response rating, Bermudagrass [15, 21] | Plant response rating, Bermudagrass [15, 22]
95: Plant response rating, Crabgrass, Large [9, 16]
25: Plant response rating, Goosegrass [6, 18] | Surinam Grass plant response rating [8, 20] | Plant response rating, Foxtail, Giant [14, 16]
98: Velvetleaf plant response rating [4, 20] | Plant response rating, Bermudagrass [15, 16]
5: Blackgrass plant response rating [7, 20] | Plant response rating, Foxtail, Green [10, 17] | Plant response rating, Bromegrass, Downy [11, 19] | Bromegrass, Downy plant response rating [11, 20]
55: Plant response rating, Nutsedge, Yellow [13, 16] | Plant response rating, Foxtail, Giant [14, 18] | Plant response rating, Foxtail, Giant [14, 19]
35: Plant response rating, Goosegrass [6, 19] | Goosegrass plant response rating [6, 20] | Plant response rating, Bermudagrass [15, 17]
